In ChEMBL document CHEMBL1136688, “Synthesis and SAR of aminoalkoxy-biaryl-4-carboxamides: novel and selective histamine H3 receptor antagonists” (Bioorg Med Chem Lett, 2003):

Legend:
Histamine H1 receptor = Histamine H1 receptor (Homo sapiens, UniProt P35367); assay: Binding affinity towards human histaminergic (H1) receptor
[1] = Plasma clearance after oral administration (2.5 mg/kg) in dog was determined; type: ADME, organism-based, Canis lupus familiaris; details: read-out: Clp (converted)
[2] = target: T1, Muscarinic acetylcholine receptor M1 (Homo sapiens, UniProt P11229); assay: Binding affinity towards human muscarinic M1 receptor
T1 sequence (P11229 whole entry): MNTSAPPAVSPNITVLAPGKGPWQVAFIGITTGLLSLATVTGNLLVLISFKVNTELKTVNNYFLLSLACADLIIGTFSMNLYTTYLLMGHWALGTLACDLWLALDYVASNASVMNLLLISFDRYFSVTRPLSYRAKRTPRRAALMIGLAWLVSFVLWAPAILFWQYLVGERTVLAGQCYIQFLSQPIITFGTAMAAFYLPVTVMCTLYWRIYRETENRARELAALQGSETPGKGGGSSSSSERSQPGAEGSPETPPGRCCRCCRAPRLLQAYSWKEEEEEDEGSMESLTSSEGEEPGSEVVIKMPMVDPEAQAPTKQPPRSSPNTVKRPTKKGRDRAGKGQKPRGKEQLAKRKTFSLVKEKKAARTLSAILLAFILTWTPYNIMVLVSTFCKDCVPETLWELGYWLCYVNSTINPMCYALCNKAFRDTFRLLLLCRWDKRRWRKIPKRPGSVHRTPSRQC

[3] = target: T2, Muscarinic acetylcholine receptor M2 (Homo sapiens, UniProt P08172); assay: Binding affinity towards human muscarinic M2 receptor
T2 sequence (P08172 whole entry): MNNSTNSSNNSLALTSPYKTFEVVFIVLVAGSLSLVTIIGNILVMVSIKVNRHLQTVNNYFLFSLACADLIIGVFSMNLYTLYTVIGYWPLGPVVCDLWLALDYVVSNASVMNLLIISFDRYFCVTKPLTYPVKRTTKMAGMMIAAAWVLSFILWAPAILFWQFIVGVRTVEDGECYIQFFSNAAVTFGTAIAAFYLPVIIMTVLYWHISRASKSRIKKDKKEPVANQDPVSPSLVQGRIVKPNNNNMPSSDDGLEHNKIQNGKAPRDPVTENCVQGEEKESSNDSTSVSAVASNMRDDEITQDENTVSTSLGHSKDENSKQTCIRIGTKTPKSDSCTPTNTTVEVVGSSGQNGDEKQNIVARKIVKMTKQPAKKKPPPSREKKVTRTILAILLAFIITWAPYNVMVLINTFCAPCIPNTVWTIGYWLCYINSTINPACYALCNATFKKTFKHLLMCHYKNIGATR

[4] = target: T3, Alpha-2C adrenergic receptor (Homo sapiens, UniProt P18825); assay: Binding affinity towards human Alpha-2C adrenergic receptor
T3 sequence (P18825 whole entry): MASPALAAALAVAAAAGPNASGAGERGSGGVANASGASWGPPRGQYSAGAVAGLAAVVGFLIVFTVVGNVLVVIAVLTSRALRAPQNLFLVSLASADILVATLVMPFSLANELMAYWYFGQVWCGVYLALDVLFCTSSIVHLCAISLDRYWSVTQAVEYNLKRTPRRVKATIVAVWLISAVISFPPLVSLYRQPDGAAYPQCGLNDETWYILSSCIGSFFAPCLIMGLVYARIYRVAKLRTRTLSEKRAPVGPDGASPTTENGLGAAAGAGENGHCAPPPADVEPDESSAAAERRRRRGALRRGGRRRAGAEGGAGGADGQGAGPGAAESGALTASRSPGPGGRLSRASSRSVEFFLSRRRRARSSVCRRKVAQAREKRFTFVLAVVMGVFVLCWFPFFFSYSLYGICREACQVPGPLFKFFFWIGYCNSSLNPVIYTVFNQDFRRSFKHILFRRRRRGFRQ

[5] = Half life period after oral administration (2.5 mg/kg) in dog was determined; type: ADME, organism-based, Canis lupus familiaris; details: in vivo
[6] = Volume distribution after oral administration (2.5 mg/kg) in monkey was determined; type: ADME, organism-based; details: cercopithecidae, in vivo
D(4) dopamine receptor = target: T4, D(4) dopamine receptor (Homo sapiens, UniProt P21917); assay: Binding affinity towards human D4.2 receptor
T4 sequence (P21917 whole entry): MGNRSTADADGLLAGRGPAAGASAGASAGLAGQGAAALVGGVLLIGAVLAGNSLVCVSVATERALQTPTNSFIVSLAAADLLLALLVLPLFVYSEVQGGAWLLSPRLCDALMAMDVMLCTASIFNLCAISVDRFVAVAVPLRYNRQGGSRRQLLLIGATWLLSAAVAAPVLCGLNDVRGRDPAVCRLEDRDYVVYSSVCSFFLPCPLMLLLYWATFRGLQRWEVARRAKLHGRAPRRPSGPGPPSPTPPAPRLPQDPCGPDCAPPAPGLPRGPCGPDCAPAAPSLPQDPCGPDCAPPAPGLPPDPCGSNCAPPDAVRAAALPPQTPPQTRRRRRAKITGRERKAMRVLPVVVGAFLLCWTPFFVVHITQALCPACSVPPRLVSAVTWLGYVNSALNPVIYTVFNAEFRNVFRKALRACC

Histamine H3 receptor [7] = target: T5, Histamine H3 receptor (Homo sapiens, UniProt Q9Y5N1); assay: Affinity to bind with human cloned H3 receptor using radioligand binding assay; details: read-out: pA2 (converted)
[8] = Plasma clearance after oral administration (2.5 mg/kg) in monkey was determined; type: ADME, organism-based; details: cercopithecidae, read-out: Clp (converted)
Histamine H2 receptor = Histamine H2 receptor (Homo sapiens, UniProt P25021); assay: Binding affinity towards human histaminergic (H2) receptor
[9] = target: Sodium-dependent noradrenaline transporter (Homo sapiens, UniProt P23975); assay: Binding affinity towards human UPTK-NE transporter
[10] = target: Muscarinic acetylcholine receptor M3 (Homo sapiens, UniProt P20309); assay: Binding affinity towards human muscarinic M3 receptor
[11] = The peak plasma concentration after 5 hr administration (2.5 mg/kg) in monkey was determined; type: ADME, organism-based; parameters: dose 2.5 mg/kg; details: cercopithecidae
[12] = Bioavailability after oral administration (2.5 mg/kg) in dog was determined; type: ADME, organism-based, Canis lupus familiaris; details: in vivo
[13] = target: Sodium-dependent dopamine transporter (Homo sapiens, UniProt Q01959); assay: Binding affinity towards human UPTK-DA transporter
Cavia porcellus = organism: Cavia porcellus; assay: Compound was tested for blocked alpha-methylhistamine-induced inhibition of electrical field-stimulation induced twitch response in guinea pig ileum; type: functional; details: read-out: pA2 (converted)
Histamine H4 receptor = Histamine H4 receptor (Homo sapiens, UniProt Q9H3N8); assay: Binding affinity towards human histaminergic (H4) receptor
[14] = Bioavailability after oral administration (2.5 mg/kg) in monkey was determined; type: ADME, organism-based; details: cercopithecidae, in vivo
Histamine H3 receptor [15] = target: T5, Histamine H3 receptor; assay: Binding affinity for human recombinant H3 receptor
[16] = Half life period after oral administration (2.5 mg/kg) in monkey was determined; type: ADME, organism-based; details: cercopithecidae, in vivo
[17] = The peak blood concentration after 5 hr administration (2.5 mg/kg) in dog was determined; type: ADME, organism-based, Canis lupus familiaris; parameters: dose 2.5 mg/kg
[18] = target: Sodium-dependent serotonin transporter (Homo sapiens, UniProt P31645); assay: Binding affinity towards human UPTK-Serotonin transporter
[19] = target: Histamine H3 receptor (Rattus norvegicus) (UniProt Q9QYN8); details: Brain
Sequence of Histamine H3 receptor (Rattus norvegicus) (Q9QYN8 whole entry): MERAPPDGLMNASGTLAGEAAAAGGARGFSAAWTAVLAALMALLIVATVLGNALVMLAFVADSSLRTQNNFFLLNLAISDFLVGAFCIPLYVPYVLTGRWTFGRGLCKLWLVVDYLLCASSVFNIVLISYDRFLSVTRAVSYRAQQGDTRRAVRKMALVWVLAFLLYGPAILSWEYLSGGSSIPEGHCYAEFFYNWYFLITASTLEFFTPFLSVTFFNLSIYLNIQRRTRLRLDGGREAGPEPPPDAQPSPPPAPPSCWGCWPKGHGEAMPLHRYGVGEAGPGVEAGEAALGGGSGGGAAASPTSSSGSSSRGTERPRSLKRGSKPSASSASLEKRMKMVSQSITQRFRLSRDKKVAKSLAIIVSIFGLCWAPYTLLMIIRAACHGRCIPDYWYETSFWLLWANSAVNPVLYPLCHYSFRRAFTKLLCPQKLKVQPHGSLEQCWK

T5 sequence (Q9Y5N1 whole entry): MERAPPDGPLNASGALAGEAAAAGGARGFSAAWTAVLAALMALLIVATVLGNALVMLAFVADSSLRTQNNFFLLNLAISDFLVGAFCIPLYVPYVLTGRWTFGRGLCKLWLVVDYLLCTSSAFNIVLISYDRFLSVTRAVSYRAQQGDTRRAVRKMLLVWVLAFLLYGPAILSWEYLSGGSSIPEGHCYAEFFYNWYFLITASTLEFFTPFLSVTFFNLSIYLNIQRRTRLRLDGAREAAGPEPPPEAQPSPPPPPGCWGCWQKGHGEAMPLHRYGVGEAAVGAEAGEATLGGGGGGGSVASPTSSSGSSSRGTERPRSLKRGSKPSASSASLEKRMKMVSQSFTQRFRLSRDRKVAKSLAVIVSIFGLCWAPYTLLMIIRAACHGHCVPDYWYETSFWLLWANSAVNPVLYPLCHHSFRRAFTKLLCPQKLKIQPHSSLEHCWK
Sequence of Sodium-dependent noradrenaline transporter (P23975 whole entry): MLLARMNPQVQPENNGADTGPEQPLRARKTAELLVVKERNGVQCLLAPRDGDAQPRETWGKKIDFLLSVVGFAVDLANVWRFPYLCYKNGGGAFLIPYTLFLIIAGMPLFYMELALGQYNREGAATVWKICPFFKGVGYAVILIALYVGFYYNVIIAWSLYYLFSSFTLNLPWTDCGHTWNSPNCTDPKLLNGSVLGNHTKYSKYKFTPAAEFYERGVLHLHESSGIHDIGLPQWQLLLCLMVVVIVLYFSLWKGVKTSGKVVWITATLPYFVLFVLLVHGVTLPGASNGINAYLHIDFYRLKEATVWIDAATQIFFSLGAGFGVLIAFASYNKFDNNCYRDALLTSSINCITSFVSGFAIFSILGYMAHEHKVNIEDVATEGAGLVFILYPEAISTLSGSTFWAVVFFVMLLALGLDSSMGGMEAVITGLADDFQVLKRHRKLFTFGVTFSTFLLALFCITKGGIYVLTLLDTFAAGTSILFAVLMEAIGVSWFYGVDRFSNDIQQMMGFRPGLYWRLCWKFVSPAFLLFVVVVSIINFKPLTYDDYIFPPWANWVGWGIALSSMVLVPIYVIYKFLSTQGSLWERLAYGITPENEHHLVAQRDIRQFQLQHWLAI
Sequence of Histamine H1 receptor (P35367 whole entry): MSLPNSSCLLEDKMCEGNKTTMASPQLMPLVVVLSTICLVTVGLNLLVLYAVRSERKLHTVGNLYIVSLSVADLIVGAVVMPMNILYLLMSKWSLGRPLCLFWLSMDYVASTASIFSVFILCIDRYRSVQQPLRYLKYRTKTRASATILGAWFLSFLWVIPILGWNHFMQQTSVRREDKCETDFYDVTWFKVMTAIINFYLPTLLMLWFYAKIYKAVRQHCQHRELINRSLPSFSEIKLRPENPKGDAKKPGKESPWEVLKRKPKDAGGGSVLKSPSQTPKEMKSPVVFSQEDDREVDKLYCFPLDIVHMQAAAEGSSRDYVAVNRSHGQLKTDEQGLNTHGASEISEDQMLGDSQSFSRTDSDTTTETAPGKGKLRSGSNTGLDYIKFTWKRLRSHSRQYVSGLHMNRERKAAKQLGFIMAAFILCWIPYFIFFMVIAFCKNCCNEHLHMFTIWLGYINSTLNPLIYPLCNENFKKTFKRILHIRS
Sequence of Sodium-dependent serotonin transporter (P31645 whole entry): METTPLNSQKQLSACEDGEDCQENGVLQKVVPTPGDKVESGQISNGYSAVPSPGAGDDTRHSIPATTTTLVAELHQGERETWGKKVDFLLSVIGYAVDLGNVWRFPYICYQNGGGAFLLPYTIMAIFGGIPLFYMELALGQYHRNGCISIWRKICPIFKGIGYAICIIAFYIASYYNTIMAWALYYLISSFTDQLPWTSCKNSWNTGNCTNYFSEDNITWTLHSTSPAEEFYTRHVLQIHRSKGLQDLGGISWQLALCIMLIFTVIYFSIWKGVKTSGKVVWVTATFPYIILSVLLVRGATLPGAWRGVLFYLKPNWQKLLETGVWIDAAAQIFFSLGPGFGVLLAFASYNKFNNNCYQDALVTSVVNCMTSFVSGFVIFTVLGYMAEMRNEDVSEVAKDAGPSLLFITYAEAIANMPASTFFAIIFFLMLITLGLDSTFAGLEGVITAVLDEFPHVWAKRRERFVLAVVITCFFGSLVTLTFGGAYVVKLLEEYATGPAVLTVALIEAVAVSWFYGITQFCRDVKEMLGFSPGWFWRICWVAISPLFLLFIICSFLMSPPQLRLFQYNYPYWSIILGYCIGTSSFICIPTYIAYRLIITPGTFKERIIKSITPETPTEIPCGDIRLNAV
Sequence of Sodium-dependent dopamine transporter (Q01959 whole entry): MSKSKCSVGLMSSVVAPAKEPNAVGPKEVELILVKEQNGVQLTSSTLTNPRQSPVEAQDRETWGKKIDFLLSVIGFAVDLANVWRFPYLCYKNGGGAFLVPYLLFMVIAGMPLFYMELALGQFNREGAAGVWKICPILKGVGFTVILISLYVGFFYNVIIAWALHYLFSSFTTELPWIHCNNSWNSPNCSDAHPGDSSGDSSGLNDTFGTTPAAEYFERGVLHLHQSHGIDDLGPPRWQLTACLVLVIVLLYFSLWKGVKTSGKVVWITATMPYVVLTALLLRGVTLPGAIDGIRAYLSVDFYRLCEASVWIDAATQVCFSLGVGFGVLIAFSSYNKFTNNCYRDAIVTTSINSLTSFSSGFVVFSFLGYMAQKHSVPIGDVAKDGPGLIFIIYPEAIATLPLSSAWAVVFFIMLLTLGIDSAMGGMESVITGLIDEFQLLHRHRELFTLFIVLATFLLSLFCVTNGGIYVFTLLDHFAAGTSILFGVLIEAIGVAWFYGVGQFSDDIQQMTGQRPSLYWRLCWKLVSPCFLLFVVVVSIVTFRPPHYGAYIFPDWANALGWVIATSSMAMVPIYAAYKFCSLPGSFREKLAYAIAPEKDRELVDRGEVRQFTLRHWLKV
Sequence of Muscarinic acetylcholine receptor M3 (P20309 whole entry): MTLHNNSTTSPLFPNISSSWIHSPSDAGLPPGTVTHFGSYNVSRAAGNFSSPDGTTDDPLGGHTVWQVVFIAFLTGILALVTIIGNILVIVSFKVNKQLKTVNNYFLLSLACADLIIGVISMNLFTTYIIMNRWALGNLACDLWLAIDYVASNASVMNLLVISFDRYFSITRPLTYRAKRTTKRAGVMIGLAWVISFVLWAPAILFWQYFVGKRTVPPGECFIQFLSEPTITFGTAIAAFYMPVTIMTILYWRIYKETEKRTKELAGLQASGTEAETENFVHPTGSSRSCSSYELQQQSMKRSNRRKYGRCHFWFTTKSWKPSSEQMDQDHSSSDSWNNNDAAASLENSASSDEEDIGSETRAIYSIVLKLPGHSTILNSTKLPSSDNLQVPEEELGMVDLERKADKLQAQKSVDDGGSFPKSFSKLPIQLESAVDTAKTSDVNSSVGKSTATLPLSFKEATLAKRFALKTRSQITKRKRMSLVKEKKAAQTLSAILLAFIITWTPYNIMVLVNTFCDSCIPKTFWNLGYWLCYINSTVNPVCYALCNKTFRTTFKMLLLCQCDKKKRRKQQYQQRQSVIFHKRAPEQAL
Sequence of Histamine H2 receptor (P25021 whole entry): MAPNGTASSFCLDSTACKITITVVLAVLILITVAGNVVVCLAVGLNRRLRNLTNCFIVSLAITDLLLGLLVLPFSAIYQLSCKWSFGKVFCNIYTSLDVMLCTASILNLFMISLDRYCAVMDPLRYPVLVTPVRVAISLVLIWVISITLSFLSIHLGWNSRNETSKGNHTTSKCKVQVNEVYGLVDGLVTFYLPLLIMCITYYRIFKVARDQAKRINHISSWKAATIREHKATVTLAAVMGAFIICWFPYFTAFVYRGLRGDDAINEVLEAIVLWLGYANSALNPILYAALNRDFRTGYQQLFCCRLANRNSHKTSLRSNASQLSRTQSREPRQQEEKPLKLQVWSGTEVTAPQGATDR

Ki (Histamine H1 receptor): 2340 nM
CL/F [1]: 10 mL/min/kg
Ki [2]: 1620 nM
Ki [3]: 933 nM
Ki [4]: 1620 nM
half-life [5]: 156 min
Vbeta [6]: 7.5 L/kg
Ki (D(4) dopamine receptor): 9.77 µM
Kb (Histamine H3 receptor [7]): 2.14 nM
CL/F [8]: 16.7 mL/min/kg
Ki (Histamine H2 receptor): 10 µM
Ki [9]: 9.77 µM
Ki [10]: 1660 nM
Cmax [11]: 170 ng/mL
bioavailability [12]: 33%
Ki [13]: 4.9 µM
Ki (Histamine H4 receptor): 10 µM
bioavailability [14]: 78%
Ki (Histamine H3 receptor [15]): 0.49 nM
half-life [16]: 318 min
Cmax [17]: 310 ng/mL
Ki [18]: 3.55 µM
pKb [19]: 9.23
Structure (SMILES): C[C@H]1CC[C@H](C)N1CCCOc1ccc(-c2ccc(C(=O)N3CCOCC3)cc2)cc1 [A-349,821]
Kb (Cavia porcellus): 0.339 nM
